Laboratory results from ChEMBL document CHEMBL4359912, “Novel N-Substituted oseltamivir derivatives as potent influenza neuraminidase inhibitors: Design, synthesis, biological evaluation, ADME prediction and molecular docking studies” (Eur J Med Chem, 2019).

Biological target: Neuraminidase (Influenza A virus (A/Memphis/1/1971(H3N2)), UniProt P03471)
Test: Inhibition of influenza A virus H3N2 clinical isolate neuraminidase using NA-Fluor MUNANA as substrate preincubated for 20 to 30 mins followed by substrate addition and measured for 60 mins by fluorescence assay

Neuraminidase (Influenza A virus (A/Memphis/1/1971(H3N2)), UniProt P03471), sequence (P03471 whole entry): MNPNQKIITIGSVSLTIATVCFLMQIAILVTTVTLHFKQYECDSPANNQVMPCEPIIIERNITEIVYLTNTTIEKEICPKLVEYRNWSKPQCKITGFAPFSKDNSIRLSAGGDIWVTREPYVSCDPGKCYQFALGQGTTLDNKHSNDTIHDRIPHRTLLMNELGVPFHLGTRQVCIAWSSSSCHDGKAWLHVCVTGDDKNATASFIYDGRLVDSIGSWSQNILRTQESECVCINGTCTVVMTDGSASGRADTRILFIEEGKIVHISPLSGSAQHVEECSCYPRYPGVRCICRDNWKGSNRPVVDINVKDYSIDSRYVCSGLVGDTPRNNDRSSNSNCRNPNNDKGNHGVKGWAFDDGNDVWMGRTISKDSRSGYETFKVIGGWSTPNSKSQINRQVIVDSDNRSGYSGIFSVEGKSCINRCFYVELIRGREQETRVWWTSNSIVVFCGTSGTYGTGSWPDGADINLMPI

CCC(CC)O[C@@H]1C=C(C(=O)O)C[C@H](NCc2ccc(-c3c(C)noc3C)o2)[C@H]1NC(C)=O
IC50: 1.63 nM

CCC(CC)O[C@@H]1C=C(C(=O)O)C[C@H](NCc2noc(-c3ccco3)n2)[C@H]1NC(C)=O
IC50: 1.92 nM
